According to patent publication US20260256751A1, “COMBINATION OF BETA-2-ADRENERGIC RECEPTOR AGONISTS AND GLP-1 RECEPTOR AGONISTS FOR USE IN TREATING HYPERGLYCAEMIA” (ATROGI AB, priority 2023, published 2026):

Columns and labels:
[1] = tested on: differentiated L6-myotubes; assay: Glucose uptake screen (Biological example 1 of WO 2019/053427); format: cell-based; conditions: compound at 10 μM, activity relative to isoproterenol at 10 μM, read-out: Biological example 1 of WO 2019/053427 (GU)
Summary of the method: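 Uptake was read out as ^3H-2-deoxyglucose (50 nM, 10 min) radioactivity in NaOH lysates. Beforehand, overnight-starved, differentiated L6 myotubes received compound at 1×10^−5 M with ICI-118551 present for 1 h 40 min, followed by fresh agonist for a further 20 min in glucose-free medium.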

[2] = tested on: differentiated L6-myotubes; assay: cAMP production relative to isoprenaline (Biological example 2 of WO 2019/053427); format: cell-based; conditions: 0.25 h, compound at 10 μM, activity relative to isoproterenol at 10 μM
Summary of the method: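 Values are cAMP levels relative to isoprenaline at equal concentration (final 1×10^−5 M for both). Stimulation lasted 15 min in differentiated L6 myotubes, using HBSS buffer (pH 7.4) containing 1 mM IBMX, 5 mM HEPES and 1% BSA.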

Molecule `COC(=O)[C@H]1CC[C@H](C(C)(C)NC[C@H](O)c2cccc(F)c2)CC1` [Compound 367, (1R,4r)-8-[(R)-2-(m-fluorophenyl)-2-hydroxyethylamino]-7-methoxy-p-menthan-7-one] has an Emax at 10 µM [1] of over 75% and an Emax at 10 µM [2] of 25 to 50%.
With `O[C@H](c1cccc(F)c1)C12CCC(C/C=C/c3ccccc3)(CC1)N2` [Compound 534, (R)-{4-[(E)-3-phenyl-2-propenyl]-7-azabicyclo[2.2.1]hept-1-yl}(m-fluorophenyl)methanol] the Emax at 10 µM [1] was over 75% and the Emax at 10 µM [2] was under 25%.
With `CCC[C@@H]1CCC[C@@H]([C@H](O)c2cccc(F)c2)N1` [Compound 116, (R)-[(2S,6R)-6-propyl-2-piperidyl](m-fluorophenyl)methanol] the Emax at 10 µM [1] was 25 to 50% and the Emax at 10 µM [2] was under 25%.
`O[C@H](c1cccc(F)c1)C12CCC(CCCc3ccccc3)(CC1)N2` [Compound 536, (R)-(m-fluorophenyl){4-(3-phenylpropyl)-7-azabicyclo[2.2.1]hept-1-yl}methanol] gave an Emax at 10 µM [1] of over 75% and an Emax at 10 µM [2] of 25 to 50%.
`CC(C)(C[C@H]1CC[C@H](NC(=O)C2CCC2)CC1)NC[C@H](O)c1cccc(F)c1` [Compound 431, N-[(1R,4r)-4-{2-[(R)-2-(m-fluorophenyl)-2-hydroxyethylamino]-2-methylpropyl}cyclohexyl]cyclobutanecarboxamide] was tested, and the Emax at 10 µM [1] was over 75% and the Emax at 10 µM [2] was 50 to 75%.
Work on `CC(=O)N[C@H]1CC[C@@H](CC(C)(C)NC[C@@H](O)c2cccc(C#N)n2)CC1` [Compound 423, N-[(1S,4s)-4-{2-[(R)-2-(6-cyano-2-pyridyl)-2-hydroxyethylamino]-2-methylpropyl}cyclohexyl]acetamide] yielded an Emax at 10 µM [1] of under 25% and an Emax at 10 µM [2] of under 25%.
In the case of `CO[C@H]1CC[C@H](C[C@H]2CC[C@H]([C@H](O)c3ccccc3F)N2)CC1` [Compound 339, (R)-[(2R,5R)-5-{[(1r,4R)-4-methoxycyclohexyl]methyl}-2-pyrrolidinyl](o-fluorophenyl)methanol], the Emax at 10 µM [1] is reported as over 75% and the Emax at 10 µM [2] is reported as 25 to 50%.
With `CCCCNC(C)C(O)c1ccc(O)cc1` (stereo not drawn) [Compound 12, 2-(butylamino)-1-(p-hydroxyphenyl)-1-propanol] the Emax at 10 µM [1] was 50 to 75% and the Emax at 10 µM [2] was under 25%.
In the case of `O[C@@H](CNCCC[C@H]1CC[C@H](O)CC1)c1cccc(F)c1` [Compound 303, (R)-1-(m-fluorophenyl)-2-{3-[(1r,4S)-4-hydroxycyclohexyl]propylamino}-1-ethanol], the Emax at 10 µM [1] is reported as 50 to 75% and the Emax at 10 µM [2] is reported as under 25%.
Molecule `O[C@@H](c1cncc(F)c1)[C@H]1CC[C@H](Cc2ccc(Cl)cc2)N1` [Compound 405, (S)-{(2R,5R)-5-[(p-chlorophenyl)methyl]-2-pyrrolidinyl}(5-fluoro-3-pyridyl)methanol] has an Emax at 10 µM [1] of over 75% and an Emax at 10 µM [2] of under 25%.
`O[C@@H](CNC[C@H]1CC[C@@H](OCc2ccccc2)CC1)c1cccc(F)c1` [Compound 262, (R)-1-(m-fluorophenyl)-2-({[(1s,4S)-4-(benzyloxy)cyclohexyl]methyl}amino)-1-ethanol] gave an Emax at 10 µM [1] of 25 to 50% and an Emax at 10 µM [2] of under 25%.
`CC12CC(C1)[C@@H]([C@H](O)c1cccc(F)c1)N2` [Compound 188, (R)-{(S)-1-methyl-2-azabicyclo[2.1.1]hex-3-yl}(m-fluorophenyl)methanol] gave an Emax at 10 µM [1] of under 25% and an Emax at 10 µM [2] of under 25%.
Work on `CC(=O)N[C@H]1CC[C@H](CC(C)(C)NC[C@H](O)c2cccnc2C)CC1` [Compound 434, N-[(1R,4r)-4-{2-[(R)-2-hydroxy-2-(2-methyl-3-pyridyl)ethylamino]-2-methylpropyl}cyclohexyl]acetamide] yielded an Emax at 10 µM [1] of over 75% and an Emax at 10 µM [2] of under 25%.
`CC1(C)CC[C@H]([C@@H](O)c2ccccc2F)N1` [Compound 174, (S)-[(R)-5,5-dimethyl-2-pyrrolidinyl](o-fluorophenyl)methanol] gave an Emax at 10 µM [1] of under 25% and an Emax at 10 µM [2] of under 25%.
For `CC(C)(C[C@H]1CC[C@@H](S(N)(=O)=O)CC1)NC[C@H](O)c1cccc(F)c1` [Compound 517, (1S,4s)-4-{2-[(R)-2-(m-fluorophenyl)-2-hydroxyethylamino]-2-methylpropyl}cyclohexanesulfonamide], the Emax at 10 µM [1] was 25 to 50% and the Emax at 10 µM [2] was under 25%.
With `O[C@H](c1cccc(F)c1)C12CCC(COCc3ccc(F)cc3)(CC1)N2` [Compound 439, (R)-(m-fluorophenyl)(4-{[(p-fluorophenyl)methoxy]methyl}-7-azabicyclo[2.2.1]hept-1-yl)methanol] the Emax at 10 µM [1] was over 75% and the Emax at 10 µM [2] was 25 to 50%.
For `CC1(C)CC[C@H]([C@@H](O)c2cccc(N)c2F)N1` [Compound 226, (S)-[(R)-5,5-dimethyl-2-pyrrolidinyl](3-amino-2-fluorophenyl)methanol], the Emax at 10 µM [1] was 25 to 50% and the Emax at 10 µM [2] was under 25%.
Work on `CC1(C)CC[C@H]([C@@H](O)c2cc(F)c(N)c(F)c2)N1` [Compound 236, (S)-[(R)-5,5-dimethyl-2-pyrrolidinyl](4-amino-3,5-difluorophenyl)methanol] yielded an Emax at 10 µM [1] of over 75% and an Emax at 10 µM [2] of 25 to 50%.
`CCC[C@H]1CCC[C@@H]([C@H](O)c2cccc(Cl)c2)N1` [Compound 123, (R)-[(2S,6S)-6-propyl-2-piperidyl](m-chlorophenyl)methanol] gave an Emax at 10 µM [1] of 25 to 50% and an Emax at 10 µM [2] of under 25%.
`CC(C)(CC[C@H]1CC[C@H](N)CC1)NC[C@H](O)c1cncc(F)c1` [Compound 358, (R)-2-{1,1-dimethyl-3-[(1r,4R)-4-aminocyclohexyl]propylamino}-1-(5-fluoro-3-pyridyl)-1-ethanol] gave an Emax at 10 µM [1] of 25 to 50% and an Emax at 10 µM [2] of under 25%.
Work on `CCCC12CCC([C@@H](O)c3cccc(F)c3)(CC1)N2` [Compound 182, (S)-(m-fluorophenyl)(- propyl-7-azabicyclo[2.2.1]hept-1-yl)methanol] yielded an Emax at 10 µM [1] of under 25% and an Emax at 10 µM [2] of under 25%.
Molecule `CC1(C)CCC[C@H]([C@@H](O)c2ccccc2Cl)N1` [Compound 163, (S)-[(R)-6,6-dimethyl-2-piperidyl](o-chlorophenyl)methanol] has an Emax at 10 µM [1] of over 75% and an Emax at 10 µM [2] of under 25%.
For `CCCCNCC(O)c1ccc(O)c(Cl)c1` (stereo not drawn) [Compound 20, 2-(butylamino)-1-(3-chloro-4-hydroxyphenyl)-1-ethanol], the Emax at 10 µM [1] was 25 to 50% and the Emax at 10 µM [2] was under 25%.
`CC(C)(C[C@H]1CC[C@@H](NC(=O)OC(C)(C)C)CC1)NC[C@H](O)c1cccc(C(F)(F)F)n1` [Compound 450, (1R,4s)-4-(2-{(S)-2-hydroxy-2-[6-(trifluoromethyl)-2-pyridyl]ethylamino}-2-methylpropyl)cyclohexyl 2-methyl-2-propanecarbamate] showed an Emax at 10 µM [1] of under 25% and an Emax at 10 µM [2] of under 25%.
In the case of `CCC[C@H]1CCC[C@H]([C@@H](O)c2cccc(O)c2)N1` [Compound 155, (S)-[(2R,6S)-6-propyl-2-piperidyl](m-hydroxyphenyl)methanol], the Emax at 10 µM [1] is reported as under 25% and the Emax at 10 µM [2] is reported as under 25%.
`CC(C)(NC[C@H](O)c1cncc(F)c1)[C@H]1CC[C@H](OCc2ccccc2)CC1` [Compound 281, (R)-1-(5-fluoro-3-pyridyl)-2-{1-methyl-1-[(1r,4R)-4-(benzyloxy)cyclohexyl]eth-ylamino}-1-ethanol] gave an Emax at 10 µM [1] of 50 to 75% and an Emax at 10 µM [2] of under 25%.
For `CCCCNC[C@H](O)c1ccc(O)cc1` [Compound 9, (R)-2-(butylamino)-1-(p-hydroxyphenyl)-1-ethanol], the Emax at 10 µM [1] was over 75% and the Emax at 10 µM [2] was under 25%.
In the case of `CC12CC(C1)[C@H]([C@H](O)c1cccc(F)c1)N2` [Compound 186, (R)-{(R)-1-methyl-2-azabicyclo[2.1.1]hex-3-yl}(m-fluorophenyl)methanol], the Emax at 10 µM [1] is reported as over 75% and the Emax at 10 µM [2] is reported as 50 to 75%.
With `CC1(NC[C@H](O)c2cccc(F)c2)CCC1` [Compound 83, (R)-1-(m-fluorophenyl)-2-(1-methylcyclobutylamino)-1-ethanol] the Emax at 10 µM [1] was over 75% and the Emax at 10 µM [2] was 25 to 50%.
`O[C@H](c1cncc(F)c1)C12CCC(CCCc3ccccc3)(CC1)N2` [Compound 532, (R)-(5-fluoro-3-pyridyl){4-(3-phenylpropyl)-7-azabicyclo[2.2.1]hept-1-yl}methanol] gave an Emax at 10 µM [1] of 50 to 75% and an Emax at 10 µM [2] of 25 to 50%.
Work on `CNS(=O)(=O)[C@H]1CC[C@@H](CC(C)(C)NC[C@H](O)c2cccc(F)c2)CC1` [Compound 477, (R)-2-{1,1-dimethyl-2-[(1s,4S)-4-(methylaminosulfonyl)cyclohexyl]ethylamino}-1-(m-fluorophenyl)-1-ethanol] yielded an Emax at 10 µM [1] of 50 to 75% and an Emax at 10 µM [2] of under 25%.
Work on `O[C@H](c1cncc(F)c1)[C@H]1CC[C@H](Cc2ccc(Cl)cc2)N1` [Compound 406, (R)-{(2R,5R)-5-[(p-chlorophenyl)methyl]-2-pyrrolidinyl}(5-fluoro-3-pyridyl)methanol] yielded an Emax at 10 µM [1] of over 75% and an Emax at 10 µM [2] of under 25%.
With `CC1(C)CCC[C@@H]([C@@H](O)c2ccccc2F)N1` [Compound 192, (S)-[(S)-6,6-dimethyl-2-piperidyl](o-fluorophenyl)methanol] the Emax at 10 µM [1] was 25 to 50% and the Emax at 10 µM [2] was under 25%.
`O[C@@H](CNC[C@H]1CC[C@H](OCc2ccccc2)CC1)c1cccc(F)c1` [Compound 271, (R)-1-(m-fluorophenyl)-2-({[(1r,4R)-4-(benzyloxy)cyclohexyl]methyl}amino)-1-ethanol] was tested, and the Emax at 10 µM [1] was 25 to 50% and the Emax at 10 µM [2] was under 25%.
`CO[C@H]1CC[C@H](CCCNC[C@H](O)c2cccc(F)c2)CC1` [Compound 259, (R)-1-(m-fluorophenyl)-2-{3-[(1r,4S)-4-methoxycyclohexyl]propyl-amino}-1-ethanol] showed an Emax at 10 µM [1] of 25 to 50% and an Emax at 10 µM [2] of under 25%.
Work on `O[C@H](c1cncc(F)c1)C12CCC(C/C=C/c3ccccc3)(CC1)N2` [Compound 530] yielded an Emax at 10 µM [1] of over 75% and an Emax at 10 µM [2] of 25 to 50%.
